Key:
Hhat [1] = target: T1, Hhat (Homo sapiens, UniProt Q5VTY9); test: Hhat activity assay (SPA, P100 membranes from HA-Hhat transfected 293FT cells); type: biochemical; conditions: 12.5 μM compound, 125I-iodo-palmitoylCoA, Shh biotinylated peptide
T1 construct: expressed in transfected cells; host or cells: 293FT cells (P100 membrane fraction)
Description: Hhat activity assay: Five μl of 10 mM MES, pH 6.5 buffer was dispensed within each well of a 384-well white/clear-bottom plate (Greiner Bio-One, Kremsmuenster, Austria) using a Thermo Multi-Drop Combi dispenser. […] Percent inhibition for each experimental point was determined by the formula: [(high control−compound)/(high control−low control)]*100.

[2] = test system: AsPC1 (human pancreatic adenocarcinoma) cells; test: Human pancreatic adenocarcinoma cell assay; type: cell-based; conditions: day six, FIG. 3
Description: Human pancreatic adenocarcinoma cell assay: 5000 AsPC1 (human pancreatic adenocarcinoma) cells were plated in each well of a 384-well black/clear-bottom tissue culture plate (Greiner Bio-One, Kremsmuenster, Austria), using Thermo Multi-Drop Combi dispenser. The plates were incubated at 37° C. for 24 h before compounds were dispensed using a Janus “Varispan” automated syringe pipette at 50 μM final concentration. High control (DMSO only) and low control (cell media only) rows were included in each plate. After 48 h incubation, Alamar Blue (Invitrogen) was added to each well in 1:100 ratio. 4 h later, cell viability was assessed by measuring fluorescence on a Perkin-Elmer EnVision plate reader.
Compound 13 was tested in the human pancreatic adenocarcinoma cell assay. The results are shown graphically in FIG. 3. At 10 μM it reduced the proliferation of human pancreatic cancer cells 50% at day six. At 20 μM it reduced the proliferation of human pancreatic cancer cells by 70% at day six.

Hhat [3] = target: T1, Hhat; test: In vitro Hhat activity assay with purified enzyme and ShhN recombinant protein (IC50); type: biochemical; conditions: saturating substrate; purified enzyme, 0.7 μM ShhN recombinant protein, 18 μM 125I-iodo-palmitoylCoA
Description: Expression and purification of recombinant Shh were carried out as described in Buglino, J. A. and Resh, M. D. “Hhat is a palmitoylacyl transferase with specificity for N-palmitoylation of sonic hedgehog”. J. Biol. Chem. 283, 22076-22088 (2008) and Buglino, J. A. and Resh, M. D. “Identification of conserved regions and residues within Hedgehog acyltransferase critical for palmitoylation of Sonic Hedgehog”. PLoS One 5, e11195 (2010). N-terminally 6×His tagged human Shh 24-197 with an enterokinase cleavage site immediately upstream of residue 24 was amplified using full length Shh as a template. The purified PCR product was ligated in NcoI and BamHI cut PET19b (Novagen). C24S and C24A constructs were generated by site directed mutagenesis using the Quick Change mutagenesis kit. All mutations were confirmed by sequencing. […] Protein concentration was measured using the DC protein assay (BioRad). […]
HhatHAFlagHis was purified as follows. […] Protein concentrations were determined using the DC Protein Assay. The concentration of the final Flag eluate was determined from the absorbance at 280 nm using an extinction coefficient of 193045 cm^−1M^−1. […]

T1 sequence (Q5VTY9 whole entry): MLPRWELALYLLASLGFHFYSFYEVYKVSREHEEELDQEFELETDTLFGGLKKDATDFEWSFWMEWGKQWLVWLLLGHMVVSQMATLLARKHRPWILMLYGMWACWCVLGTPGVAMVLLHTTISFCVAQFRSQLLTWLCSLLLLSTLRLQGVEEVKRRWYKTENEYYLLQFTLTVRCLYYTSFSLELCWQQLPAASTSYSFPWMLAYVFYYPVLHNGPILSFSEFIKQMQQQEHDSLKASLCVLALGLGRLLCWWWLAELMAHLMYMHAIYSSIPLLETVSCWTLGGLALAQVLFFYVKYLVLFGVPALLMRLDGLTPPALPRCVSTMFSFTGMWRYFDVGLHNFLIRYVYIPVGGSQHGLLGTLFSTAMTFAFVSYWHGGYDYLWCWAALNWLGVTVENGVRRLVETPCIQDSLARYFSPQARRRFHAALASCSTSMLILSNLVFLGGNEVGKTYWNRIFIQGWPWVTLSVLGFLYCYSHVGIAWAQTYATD

| SMILES | inhibition at 12.5 µM (Hhat [1]) [%] | reduction of proliferation of human pancreatic cancer cells ([2]; 10 μM) [%] | reduction of proliferation of human pancreatic cancer cells ([2]; 20 μM) [%] | IC50 (Hhat [3]) [nM] |
| --- | --- | --- | --- | --- |
| C=CCNCC(=O)N1CCc2sccc2C1c1ccccc1 (centres unmarked) [Example 5] | 95.6 |  |  |  |
| CCC(C)CNCC(=O)N1CCc2sccc2C1c1cccc(C)c1 (centres unmarked) [Example 13] |  | 50 | 70 | 2050 |
| CCC(C)CNCC(=O)N1CCc2sccc2C1c1cccc(C)n1 (centres unmarked) [Example 14] |  |  |  | 680 |

— patent US9943507B2, “Treatment of pancreatic and related cancers with 5-acyl-6,7-dihydrothieno[3,2-c]pyridines” (Memorial Sloan-Kettering Cancer Center, priority 2012, dated 2018)
